Results on 13 compounds are retold here after publication PMC5729604, “Dual inhibitors of hepatitis C virus and hepatocellular carcinoma: design, synthesis and docking studies” (Future Science OA, 2017).

The subject of this data set is human HCC cell line HepG2. As to the kind of experiment: cells. In kind it is cell-based. Conditions: for IC50: Homo sapiens, HepG2, 72 h; for (LD0) HepG2 / Safe doses (100% viability of HepG2) LD0: human; for in vitro anticancer activity against HepG2, in words: IC50 <100 μg/ml potential, 100-1000 μg/ml moderate. The protocol: The safe compounds on RBCs (5a-g, 5i-l, 5p-r, 5v-w, 6b-g) were screened for their potential anticancer activity against human HCC cell line HepG2. HepG2 cells were exposed to the test compounds, then viability of cells was measured using neutral red uptake assay as described by Borenfreund and Puerner. This assay depends on the fact that neutral red dye can be incorporated into the lysosomes of living cells providing a quantitative assay to the cytotoxic effects. The results were interpreted to calculate both the concentration causing 50% cancer cell death (IC50) of each compound and the maximum safe concentration that cause 100% viability (LD0; to be used in the in vitro anti-HCV testing) using GraphPad InStat 3.0 software (Figure 5 & Supplementary Table 2).
HepG2 cells were routinely maintained as adherent cell cultures in RPMI-1640 medium (Lonza Group Ltd, Basel, Switzerland) supplemented with 10% fetal bovine serum (FBS; Lonza, IL, USA) at 37°C in a humidified air incubator containing 5% CO2. Cells were subcultured for 2 weeks before assay. Cell viability was assessed using trypan blue exclusion method.
HepG2 cells were washed twice in RPMI-1640 medium supplemented with 200 μM L-glutamine (Lonza) and […] 4-(2-hydroxyethyl)-1-piperazineethanesulfonic acid (HEPES) buffer (Lonza). The cells were suspended at 3 × 10^4 cells/ml in RPMI culture medium (RPMI supplemented medium and 10% FBS). The appropriate number of cells was chosen to be 3 × 10^3 cells/well (100 μl of the prepared suspension), and the cells were left to adhere on the polystyrene 96-well plates in an incubator at 37°C, 5% CO2 and 95% humidity for 24 h. The cells were washed once using RPMI supplemented medium.
A 2 mg/ml stock solution of each compound was prepared in DMF and filtered using a 0.2 μM syringe filter. The desired concentrations (20, 10, 5, 2.5 and 1.25 μg/ml) were prepared using serial dilution in a 96-well plate. Compound wells were prepared by adding 100 μl of the previously prepared concentrations to a 100 μl of HepG2 cells suspension. Parallel concentrations of the solvent were prepared to be used as controls. 5-Fluorouracil was used as a positive control. Control wells were prepared by adding 100 μl culture media to a 100 μl of HepG2 cells suspension. Blank wells contained 200 μl of culture media only (without cells or compound solution). Each set of samples was pipetted in duplicate. The plate was gently shaken, then incubated at 37°C, 5% CO2 for 72 h.
After incubation, the plate was centrifuged (2000 r.p.m. for 10 min). The media were discarded by inversion over paper towels. A working solution (100 μg/ml) of neutral red stain (Bio Basic Inc, Markham, Canada) was prepared, and 100 μl of this solution was added to each well, then the plate was gently shaken. The plate was incubated at 37°C in humidified 5% CO2 for 3 h, and then centrifuged (2000 r.p.m. for 10 min). Excess dyes were discarded, and the cells were fixed with 100 μl fixing solution (0.5% formalin with 1% calcium chloride [Sigma-Aldrich]) for 1 min. Cells were destained in 100 μl destaining solution (50% ethanol with 1% glacial acetic acid [Sigma-Aldrich]) for 5 min by shaking. The stain intensity was assayed using automated microplate reader spectrophotometer adjusted at 490 nm. Surviving cell fraction was calculated according to the following equation: [drawing 3]
The results were interpreted to calculate both the concentration causing 50% cancer cell death (IC50) of each compound and the maximum safe concentration that cause 100% viability (LD0; to be used in the in vitro anti-HCV testing) using GraphPad InStat 3.0 software.

[1] abbreviates: 72 h, neutral red, Supplementary Table 2, read-out: Anticancer (HepG2) IC50.
Where [2] appears, read: 72 h, neutral red, Table 1, read-out: IC50 (HepG2).
[3] abbreviates: LD50 on normal cells / IC50 on cancer cells, larger than three = highly selective.
[4] abbreviates: 72 h, neutral red, read-out: IC50 against HepG2 cells.

Structures are written as SMILES. ≈ marks a conversion by molar mass, not a printed value. Where “and” joins values, the source holds several entries; their conditions need not be identical. Identical values can stand only once. Like-named read-outs stand apart in the source and are kept apart here. Some results are limits rather than exact numbers.

One may read the IC50 as the point on the concentration scale where inhibition reaches its midpoint. For `CC(=NN=C1SC(=Cc2cn(-c3ccccc3)nc2-c2ccccc2)C(=O)N1c1ccccc1)c1cc2ccccc2o1` [Compound 5a, 2-[1-(Benzofuran-2-yl)ethylidenehydrazono]-5-[(1,3-Diphenyl-1H-pyrazol-4-yl)methylene]-3-phenylthiazolidin-4-one], the IC50 under setting [1] was found to be 173 µg/mL (≈ 298 µM). Moreover, for the setting “72 h”, the “(LD0) HepG2” value came to 10.15 µg/mL and the “Safe doses (100% viability of HepG2) LD0” value amounted to 10.15 µg/mL.
Consider `CC(=NN=C1SC(=Cc2cn(-c3ccccc3)nc2-c2ccc(Cl)cc2)C(=O)N1c1ccccc1)c1cc2ccccc2o1` [Compound 5b, 2-[1-(Benzofuran-2-yl)ethylidenehydrazono]-5-{[3-(4-chlorophenyl)-1-phenyl-1H-pyrazol-4-yl]methylene}-3-phenylthiazolidin-4-one], for which the IC50 under setting [1] was 120 µg/mL (≈ 195 µM). For the setting “72 h”, the “(LD0) HepG2” value came to 23.02 µg/mL and the “Safe doses (100% viability of HepG2) LD0” value turned out to be 23.02 µg/mL.
Turning to `COc1ccc(-c2nn(-c3ccccc3)cc2C=C2SC(=NN=C(C)c3cc4ccccc4o3)N(c3ccccc3)C2=O)cc1` [Compound 5c, 2-[1-(Benzofuran-2-yl)ethylidenehydrazono]-5-{[3-(4-methoxyphenyl)-1-phenyl-1H-pyrazol-4-yl]methylene}-3-phenylthiazolidin-4-one], under setting [1], the 50% inhibitory concentration (IC50) was found to be 143 µg/mL (≈ 235 µM). For the same compound, for the setting “72 h”, the “(LD0) HepG2” value came to 5.88 µg/mL and the “Safe doses (100% viability of HepG2) LD0” value is 5.88 µg/mL.
As for `CC(=NN=C1SC(=Cc2cn(-c3ccccc3)nc2-c2ccccc2)C(=O)N1c1ccc(Cl)cc1)c1cc2ccccc2o1` [Compound 5d, 2-[1-(Benzofuran-2-yl)ethylidenehydrazono]-5-[(1,3-Diphenyl-1H-pyrazol-4-yl)methylene]-3-(4-chlorophenyl)thiazolidin-4-one], the “in vitro anticancer activity against HepG2, in words” value (“in vitro anticancer activity” for short) is “very weak anticancer activity”. Also, under setting [1], the concentration for half-maximal inhibition (IC50) amounted to 1140 µg/mL (≈ 1850 µM). In addition, for the setting “72 h”, the “(LD0) HepG2” value came out at 163.55 µg/mL and the “Safe doses (100% viability of HepG2) LD0” value was determined as 163.55 µg/mL.
For the compound `CC(=NN=C1SC(=Cc2cn(-c3ccccc3)nc2-c2ccc(Cl)cc2)C(=O)N1c1ccc(Cl)cc1)c1cc2ccccc2o1` [Compound 5e, 2-[1-(Benzofuran-2-yl)ethylidenehydrazono]-5-{[3-(4-chlorophenyl)-1-phenyl-1H-pyrazol-4-yl]methylene}-3-(4-chlorophenyl)thiazolidin-4-one], the IC50 under setting [1] came to 318 µg/mL (≈ 490 µM). Further, where the note is “72 h”, the “(LD0) HepG2” value is 31.12 µg/mL and the “Safe doses (100% viability of HepG2) LD0” value worked out at 31.12 µg/mL.
With `COc1ccc(-c2nn(-c3ccccc3)cc2C=C2SC(=NN=C(C)c3cc4ccccc4o3)N(c3ccc(Cl)cc3)C2=O)cc1` [Compound 5f, 2-[1-(Benzofuran-2-yl)ethylidenehydrazono]-5-{[3-(4-methoxyphenyl)-1-phenyl-1H-pyrazol-4-yl]methylene}-3-(4-chlorophenyl)thiazolidin-4-one], the “in vitro anticancer activity” value is recorded as “potential in vitro anticancer activity”. Moreover, under setting [2], the IC50 came to 69.4 µg/mL (≈ 108 µM). The compound also returned a Selectivity index (LD50 on PBMC / IC50 on HepG2) of 3.74. The “Selectivity index” value under setting [3] is “larger than three”. In addition, under “72 h”, the “(LD0) HepG2” value was determined as 10.39 µg/mL and the “Safe doses (100% viability of HepG2) LD0” value was found to be 10.39 µg/mL.
Consider `COc1ccc(N2C(=O)C(=Cc3cn(-c4ccccc4)nc3-c3ccccc3)SC2=NN=C(C)c2cc3ccccc3o2)cc1` [Compound 5g, 2-[1-(Benzofuran-2-yl)ethylidenehydrazono]-5-[(1,3-Diphenyl-1H-pyrazol-4-yl)methylene]-3-(4-methoxyphenyl)thiazolidin-4-one], for which the IC50 under setting [1] stood at 193 µg/mL (≈ 316 µM). Under “72 h”, the “(LD0) HepG2” value was found to be 66.72 µg/mL and the “Safe doses (100% viability of HepG2) LD0” value is 66.72 µg/mL.
With `COc1ccc(-c2nn(-c3ccccc3)cc2C=C2SC(=NN=C(C)c3cc4ccccc4o3)N(c3ccc(OC)cc3)C2=O)cc1` [Compound 5i, 2-[1-(Benzofuran-2-yl)ethylidenehydrazono]-5-{[3-(4-methoxyphenyl)-1-phenyl-1H-pyrazol-4-yl]methylene}-3-(4-methoxyphenyl)thiazolidin-4-one], under setting [1], the half-inhibitory concentration (IC50) turned out to be 120 µg/mL (≈ 188 µM). In addition, under “72 h”, the “(LD0) HepG2” value came to 0.05 µg/mL and the “Safe doses (100% viability of HepG2) LD0” value is 0.05 µg/mL.
`CC(=NN=C1SC(=Cc2cn(-c3ccccc3)nc2-c2ccccc2)C(=O)N1C1CCCCC1)c1cc2ccccc2o1` [Compound 5j, 2-[1-(Benzofuran-2-yl)ethylidenehydrazono]-5-[(1,3-Diphenyl-1H-pyrazol-4-yl)methylene]-3-cyclohexylthiazolidin-4-one]: the “in vitro anticancer activity” value is listed as “potential in vitro anticancer activity”. Besides, the IC50 under setting [2] is 63.8 µg/mL (≈ 109 µM). Besides, the Selectivity index (LD50 on PBMC / IC50 on HepG2) is 2.10. For the same compound, for the setting “72 h”, the “(LD0) HepG2” value turned out to be 5.08 µg/mL and the “Safe doses (100% viability of HepG2) LD0” value worked out at 5.08 µg/mL.
Take `CC(=NN=C1SC(=Cc2cn(-c3ccccc3)nc2-c2ccc(Cl)cc2)C(=O)N1C1CCCCC1)c1cc2ccccc2o1` [Compound 5k, 2-[1-(Benzofuran-2-yl)ethylidenehydrazono]-5-{[3-(4-chlorophenyl)-1-phenyl-1H-pyrazol-4-yl]methylene}-3-cyclohexylthiazolidin-4-one]: under setting [1], the IC50 came out at 150 µg/mL (≈ 242 µM). Under “72 h”, the “(LD0) HepG2” value turned out to be 56.74 µg/mL and the “Safe doses (100% viability of HepG2) LD0” value was 56.74 µg/mL.
Take `COc1ccc(-c2nn(-c3ccccc3)cc2C=C2SC(=NN=C(C)c3cc4ccccc4o3)N(C3CCCCC3)C2=O)cc1` [Compound 5l, 2-[1-(Benzofuran-2-yl)ethylidenehydrazono]-5-{[3-(4-methoxyphenyl)-1-phenyl-1H-pyrazol-4-yl]methylene}-3-cyclohexylthiazolidin-4-one]: the “in vitro anticancer activity” value was “potential in vitro anticancer activity”. Further, under setting [2], the IC50 was 82.1 µg/mL (≈ 133 µM). In addition, the Selectivity index (LD50 on PBMC / IC50 on HepG2) is reported as 0.57. For the same compound, under “72 h”, the “(LD0) HepG2” value was determined as 5.11 µg/mL and the “Safe doses (100% viability of HepG2) LD0” value is 5.11 µg/mL.
`CC(=NN=C1SC(=Cc2cn(-c3ccccc3)nc2-c2ccccc2)C(=O)N1c1ccc(Cl)cc1)c1nc2ccccc2[nH]1` [Compound 5p, 2-[1-(1H-Benzimidazole-2-yl)ethylidenehydrazono]-5-[(1,3-Diphenyl-1H-pyrazol-4-yl)methylene]-3-(4-chlorophenyl)thiazolidin-4-one]: the “in vitro anticancer activity” value is listed as “potential in vitro anticancer activity”. For the same compound, the IC50 under setting [2] is 46.5 µg/mL (≈ 75.7 µM). The IC50 under setting [4] is less than 50 µg/mL. The Selectivity index (LD50 on PBMC / IC50 on HepG2) was 2.58. Further, where the note is “72 h”, the “(LD0) HepG2” value worked out at 13.32 µg/mL and the “Safe doses (100% viability of HepG2) LD0” value is 13.22 µg/mL.
In the case of `CC(=NN=C1SC(=Cc2cn(-c3ccccc3)nc2-c2ccc(Cl)cc2)C(=O)N1c1ccc(Cl)cc1)c1nc2ccccc2[nH]1` [Compound 5q, 2-[1-(1H-Benzimidazole-2-yl)ethylidenehydrazono]-5-{[3-(4-chlorophenyl)-1-phenyl-1H-pyrazol-4-yl]methylene}-3-(4-chlorophenyl)thiazolidin-4-one], the “in vitro anticancer activity” value was “potential in vitro anticancer activity”. Where the note is “72 h, neutral red”, the “IC50 against HepG2 cells” value is less than 100 µg/mL. Where the note is “HepG2, calculated with GraphPad InStat”, the “IC100, concentration that killed 100% of cancer cells” value is 94.54 µg/mL and < 100 µg/mL. In addition, the IC50 under setting [2] was found to be 35.7 µg/mL (≈ 55.1 µM). In addition, under setting [4], the IC50 is less than 50 µg/mL. Under setting [3], the “Selectivity index” value is listed as “larger than three”. In addition, where the note is “72 h”, the “(LD0) HepG2” value was 23.12 µg/mL and the “Safe doses (100% viability of HepG2) LD0” value worked out at 23.12 µg/mL.
